Article PMC5362899, “Structural insights into the nucleotide base specificity of P2X receptors” (Scientific Reports, 2017)
Numbering of substitutions follows the chain as printed.

Experiments:
Assay type in all cases: cell-based
rat P2X4 WT (rWT) = target: T1, rat P2X4 WT (rWT) (Rattus norvegicus, UniProt P51577); assay: Two-Electrode Voltage Clamp recording, rat P2X4 WT in Xenopus oocytes; conditions: for nucleotide-evoked currents: GTP and UTP applied at 3 mM (Fig. S4); for EC50: oocytes held at −70 mV, n = 9, read-out: EC50 (evoked current, dose-response)
T1 construct: rat P2X4 (NP_113782.1; WT and mutants) were transcribed from pGEMHE plasmids; expressed in transfected cells; host or cells: Xenopus laevis oocytes injected with cRNA from pGEMHE
T1 sequence (P51577 1-388): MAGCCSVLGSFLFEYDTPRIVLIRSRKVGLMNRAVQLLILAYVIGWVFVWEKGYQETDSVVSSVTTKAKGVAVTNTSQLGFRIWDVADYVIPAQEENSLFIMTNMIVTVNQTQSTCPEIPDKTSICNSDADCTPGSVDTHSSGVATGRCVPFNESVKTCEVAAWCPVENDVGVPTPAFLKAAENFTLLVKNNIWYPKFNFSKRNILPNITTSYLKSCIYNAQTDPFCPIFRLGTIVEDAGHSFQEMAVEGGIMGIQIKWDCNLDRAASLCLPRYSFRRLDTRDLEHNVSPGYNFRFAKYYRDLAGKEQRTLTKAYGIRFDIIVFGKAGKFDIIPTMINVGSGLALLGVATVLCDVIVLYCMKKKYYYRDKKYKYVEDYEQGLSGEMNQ
Text: (§1) To further investigate the functional roles of the residues involved in the base recognition, T189 and R143, we performed an electrophysiological analysis with the rat P2X4, since its electrophysiological properties have been well established. We first assessed the functional role of T189 in zfP2X4 and introduced mutations at the equivalent residue of the rat P2X4 to create three mutants (^rT186A, ^rT186V and ^rT186S; the superscript “r” means rat P2X4). […] Therefore, we examined the ^rWT and the ^rT186S mutant.
(§2) Figure 4 Current responses of ^rWT, ^rT186S, ^rH140A and ^rH140R evoked by ATP and CTP. (A,B) Representative currents of ^rWT evoked by ATP (1–300 μM) (A) and CTP (10–10,000 μM) (B). (C,D) Representative currents of the ^rT186S mutant evoked by ATP (1–300 μM) (C) and CTP (10–10,000 μM) (D). (E,F) Representative currents of the ^rH140A mutant evoked by ATP (1–300 μM) (E) and CTP (10–10,000 μM) (F). (G,H) Representative currents of the ^rH140R mutant evoked by ATP (1–300 μM) (G) and CTP (10–10,000 μM) (H). (I–K) Concentration-response curves evoked by ATP and CTP in the ^rWT and the ^rT186S mutant (I), in the ^rWT and the ^rH140A mutant (J) and in the ^rWT and the ^rH140R mutant (K). Symbols are defined in the figure, and bars depict means ± SEM (n = 7–9).
(§3) The cRNAs encoding zebrafish P2X4 (NP_705939; WT) and rat P2X4 (NP_113782.1; WT and mutants) were transcribed from pGEMHE plasmids, using a mMessage mMachine® T7 ULTRA kit (Ambion, Huntingdon, Cambridgeshire, UK). Xenopus laevis oocytes were prepared, and RNA (100 ng for zebrafish P2X4, and 20 ng for rat P2X4) was injected into the oocytes. The oocytes were incubated at 18 °C in Barth’s solution, containing 88 mM NaCl, 1 mM KCl, 2.4 mM NaHCO3, 10 mM HEPES, 0.33 mM Ca(NO3)2, 0.41 mM CaCl2, and 0.82 mM MgSO4, pH 7.4, supplemented with 50 μg/ml gentamicin, and were used for recording after 2–3 days. Recording solutions contained 100 mM NaCl, 5 mM HEPES, 2 mM MgCl2, pH 7.3, and nucleoside triphosphates (ATP, CTP, GTP, and UTP), which were freshly prepared each day. Oocytes were held at −70 mV with a bath-clamp amplifier (OC-725C, Warner Co., USA), and macroscopic currents were recorded and analyzed using the pClamp 10 software (Molecular Devices, USA)[33][34]. We measured n = 4 for zebrafish P2X4 data and n = 7–9 for rat P2X4 data.

rat P2X4 rT186S mutant = target: T2, rat P2X4 rT186S mutant (Rattus norvegicus, UniProt P51577, T186S); assay: Two-Electrode Voltage Clamp recording, rat P2X4 T186S mutant in Xenopus oocytes; conditions: for nucleotide-evoked currents: GTP and UTP applied at 3 mM (Fig. S4); for EC50: oocytes held at −70 mV, n = 9, read-out: EC50 (evoked current, dose-response)
T2 construct: rat P2X4 (NP_113782.1; WT and mutants) were transcribed from pGEMHE plasmids; expressed in transfected cells; host or cells: Xenopus laevis oocytes injected with cRNA from pGEMHE
T2 sequence (P51577 1-388 T186S): T1 sequence (P51577 1-388) with T186S
Text: as §1, §2, §3

rat P2X4 rH140R mutant = target: T3, rat P2X4 rH140R mutant (Rattus norvegicus, UniProt P51577, H140R); assay: Two-Electrode Voltage Clamp recording, rat P2X4 H140R mutant in Xenopus oocytes; conditions: for fold reduced affinity as compared with rWT: rH140R mutant vs rWT, from EC50; for EC50 / nucleotide-evoked currents: rH140R mutant; for EC50: oocytes held at −70 mV, n = 9-10, read-out: EC50 (evoked current, dose-response); for nucleotide-evoked currents: 3 mM GTP, 3 mM UTP (Fig. S4)
T3 construct: rat P2X4 (NP_113782.1; WT and mutants) were transcribed from pGEMHE plasmids; expressed in transfected cells; host or cells: Xenopus laevis oocytes injected with cRNA from pGEMHE
T3 sequence (P51577 1-388 H140R): T1 sequence (P51577 1-388) with H140R
Method: as §2
Next we assessed the functional role of R143 in zfP2X4, as its side chain forms a hydrogen bond with the cytosine ring in the CTP-bound structure (Fig. 3A,B). This arginine residue is substituted with a similar basic residue, histidine (^rH140), in rat P2X4 (Fig. 3E).
as §3

In the case of `Nc1ncnc2c1ncn2[C@@H]1O[C@H](COP(=O)(O)OP(=O)(O)OP(=O)(O)O)[C@@H](O)[C@H]1O` [ATP, Adenosine 5-triphosphate], the nucleotide-evoked currents (rat P2X4 WT (rWT)) is reported as “ATP- and CTP-evoked currents were detected”, the EC50 (rat P2X4 WT (rWT)) is reported as 16.2 ± 5.4 µM and the nucleotide-evoked currents (rat P2X4 rT186S mutant) is reported as “ATP- and CTP-evoked currents were detected”. The EC50 (rat P2X4 rT186S mutant) was 29.9 ± 3.1 µM, the “fold reduced affinity as compared with rWT” value (rat P2X4 rH140R mutant) was “about 2 fold” and the EC50 (rat P2X4 rH140R mutant) was 39.4 ± 5 µM.

With `Nc1ccn([C@@H]2O[C@H](COP(=O)(O)OP(=O)(O)OP(=O)(O)O)[C@@H](O)[C@H]2O)c(=O)n1` [CTP] the nucleotide-evoked currents (rat P2X4 WT (rWT)) was “ATP- and CTP-evoked currents were detected”, the EC50 (rat P2X4 WT (rWT)) was 564 ± 170 µM and the nucleotide-evoked currents (rat P2X4 rT186S mutant) was “ATP- and CTP-evoked currents were detected”. For the same molecule, the EC50 (rat P2X4 rT186S mutant) was 557 ± 120 µM, the “fold reduced affinity as compared with rWT” value (rat P2X4 rH140R mutant) was “about 2 fold” and the EC50 (rat P2X4 rH140R mutant) was 1100 ± 140 µM.

For `Nc1nc2c(ncn2[C@@H]2O[C@H](COP(=O)(O)OP(=O)(O)OP(=O)(O)O)[C@@H](O)[C@H]2O)c(=O)[nH]1` [GTP], the nucleotide-evoked currents (rat P2X4 WT (rWT)) was “no GTP- and UTP-evoked currents were detected”, the nucleotide-evoked currents (rat P2X4 rT186S mutant) was “no GTP- and UTP-evoked currents were detected” and the nucleotide-evoked currents (rat P2X4 rH140R mutant) was “no GTP- and UTP-evoked currents were detected”.

With `O=c1ccn([C@@H]2O[C@H](COP(=O)(O)OP(=O)(O)OP(=O)(O)O)[C@@H](O)[C@H]2O)c(=O)[nH]1` [UTP] the nucleotide-evoked currents (rat P2X4 WT (rWT)) was “no GTP- and UTP-evoked currents were detected”, the nucleotide-evoked currents (rat P2X4 rT186S mutant) was “no GTP- and UTP-evoked currents were detected” and the nucleotide-evoked currents (rat P2X4 rH140R mutant) was “no GTP- and UTP-evoked currents were detected”.
